Assay results as given in patent publication US12171230B2, “Herbicidal compositions” (Bayer Aktiengesellschaft, priority 2018, dated 2024).

How the values were obtained:
Format in all cases: in vivo
Bromus sterilis [1] = assay: Post-emergence herbicidal action against Bromus sterilis; settings: 14 DAT; 50 g a.i./ha
Phalaris minor [2] = assay: Post-emergence herbicidal action against Phalaris minor
Matricaria inodora = assay: Post-emergence herbicidal action against Matricaria inodora; settings: for Herbicidal action: 450 g a.i./ha
Galium aparine = assay: Post-emergence herbicidal action against Galium aparine
Experimental: (§1) When the observed efficacies exceed the formal sum total of the values of the tests with individual applications, they also exceed the expected value according to Colby, which is calculated using the formula below and is likewise regarded as an indication of synergism (cf. S. R. Colby; in Weeds 15 (1967) p. 20 to 22): E^C=A+B−([…])
(§2) Here: • A=efficacy of the active compound (A) in % at an application rate of a g a.i./ha; • B=efficacy of the active compound (B) in % at an application rate of b g a.i./ha; • E^C=expected value of the effect of the combination (A)+(B) in % at the combined application rate a+b g a.i./ha.
(§3) Seeds or rhizome pieces of mono- and dicotyledonous weeds are placed in sandy loam in pots, covered with soil and grown in a greenhouse under good growth conditions (temperature, air humidity, water supply). Three weeks after sowing, the test plants were treated at the three-leaf stage with the compositions according to the invention. The compositions according to the invention formulated as spray powders or as emulsion concentrates were sprayed onto the green plant parts in various dosages with an application rate of 300 to 800 l/ha of water (equivalent). After the test plants have been left to stand in the greenhouse under optimal growth conditions for about 3 to 4 weeks, the action of the preparations is scored visually in comparison to untreated controls. The compositions according to the invention also have good post-emergence herbicidal activity against a broad spectrum of economically important gramineous and broadleaf weeds.

Centaurea cyano = assay: Post-emergence herbicidal action against Centaurea cyano
Experimental: Seeds or rhizome pieces of mono- and dicotyledonous weeds are placed in sandy loam in pots, covered with soil and grown in a greenhouse under good growth conditions (temperature, air humidity, water supply). Three weeks after sowing, the test plants were treated at the three-leaf stage with the compositions according to the invention. The compositions according to the invention formulated as spray powders or as emulsion concentrates were sprayed onto the green plant parts in various dosages with an application rate of 300 to 800 l/ha of water (equivalent).

Viola tricolor [3] = assay: Post-emergence herbicidal action against Viola tricolor
Lolium rigidum [4] = assay: Post-emergence herbicidal action against Lolium rigidum
Poa annua = assay: Post-emergence herbicidal action against Poa annua; settings: for Herbicidal action: 14 DAT
Experimental: as §1, §2, §3

Bromus sterilis [5] = assay: Post-emergence herbicidal action against Bromus sterilis
Alopecurus myosuroides = assay: Post-emergence herbicidal action against Alopecurus myosuroides
Lamium purpureum = assay: Post-emergence herbicidal action against Lamium purpureum; settings: 45 g of a.i./ha
Experimental: as §1, §2, §3

Lolium rigidum [6] = assay: Post-emergence herbicidal action against Lolium rigidum; remark: listed apart in the source
Viola tricolor [7] = assay: Post-emergence herbicidal action against Viola tricolor; settings: 5 g of a.i./ha
Phalaris minor [8] = assay: Post-emergence herbicidal action against Phalaris minor; remark: listed apart in the source
[9] = test system: Lolium rigidum (resistant biotype); assay: Post-emergence herbicidal action against Lolium rigidum (resistant biotype)

SMILES: CP(=O)(O)CCC(N)C(=O)O (stereo not drawn) [(7.4) Glufosinate]
- Herbicidal action (Bromus sterilis [1]): 0%
- Herbicidal action (Phalaris minor [2]; 14 DAT, 50 g a.i./ha): 0%
- Herbicidal action (Phalaris minor [2]; 14 DAT, 150 g a.i./ha): 30%
- Herbicidal action (Phalaris minor [2]; 28 DAT, 50 g a.i./ha): 0%
- Herbicidal action (Phalaris minor [2]; 28 DAT, 150 g a.i./ha): 10%
- Herbicidal action (Phalaris minor [2]; 28 DAT, 450 g a.i./ha): 30%
- Herbicidal action (Matricaria inodora; 14 DAT): 90%
- Herbicidal action (Matricaria inodora; 28 DAT): 85%
- Herbicidal action (Galium aparine; 28 DAT, 50 g a.i./ha): 0%
- Herbicidal action (Centaurea cyano; 14 DAT, 50 g a.i./ha): 30%
- Herbicidal action (Centaurea cyano; 28 DAT, 450 g a.i./ha): 60%
- Herbicidal action (Viola tricolor [3]; 14 DAT, 150 g a.i./ha): 80%
- Herbicidal action (Viola tricolor [3]; 28 DAT, 50 g a.i./ha): 20%
- Herbicidal action (Viola tricolor [3]; 28 DAT, 150 g a.i./ha): 50%
- Herbicidal action (Viola tricolor [3]; 28 DAT, 450 g a.i./ha): 60%
- Herbicidal action (Lolium rigidum [4]; 14 DAT, 150 g a.i./ha): 50%
- Herbicidal action (Lolium rigidum [4]; 14 DAT, resistant biotype, 150 g a.i./ha): 30%
- Herbicidal action (Lolium rigidum [4]; 28 DAT, 150 g a.i./ha): 30%
- Herbicidal action (Lolium rigidum [4]; 28 DAT, resistant biotype, 150 g a.i./ha): 30%
- Herbicidal action (Lolium rigidum [4]; 28 DAT, resistant biotype, 450 g a.i./ha): 50%
- Herbicidal action (Poa annua; 50 g a.i./ha): 10%
- Herbicidal action (Poa annua; 150 g a.i./ha): 30%
- Herbicidal action (Poa annua; 450 g a.i./ha): 40%

SMILES: Cc1nn(-c2cc(CC(Cl)C(=O)O)c(Cl)cc2F)c(=O)n1C(F)F (stereo not drawn) [(B4.8) Carfentrazone]
- Herbicidal action in [%] 14 DAT against Bromus sterilis (Bromus sterilis [5]; 15 g of a.i./ha): 20%
- Herbicidal action in [%] 28 DAT against Bromus sterilis (Bromus sterilis [5]; 15 g of a.i./ha): 15%
- Herbicidal action in [%] 14 DAT against Bromus sterilis (Bromus sterilis [5]; 45 g of a.i./ha): 30%
- Herbicidal action in [%] 28 DAT against Bromus sterilis (Bromus sterilis [5]; 45 g of a.i./ha): 35%
- Herbicidal action in [%] 14 DAT against Matricaria inodora (Matricaria inodora; 5 g of a.i./ha): 25%
- Herbicidal action in [%] 28 DAT against Galium aparine (Galium aparine; 5 g of a.i./ha): 70%
- Herbicidal action in [%] 28 DAT against Galium aparine (Galium aparine; 15 g of a.i./ha): 80%
- Herbicidal action in [%] 14 DAT against Alopecurus myosuroides (Alopecurus myosuroides; 5 g of a.i./ha): 0%
- Herbicidal action in [%] 14 DAT against Alopecurus myosuroides (Alopecurus myosuroides; 15 g of a.i./ha): 0%
- Herbicidal action in [%] 28 DAT against Alopecurus myosuroides (Alopecurus myosuroides; 15 g of a.i./ha): 0%
- Herbicidal action in [%] 14 DAT against Alopecurus myosuroides (Alopecurus myosuroides; 15 g of a.i./ha, second 14 DAT block): 15%
- Herbicidal action in [%] 14 DAT against Alopecurus myosuroides (Alopecurus myosuroides; 45 g of a.i./ha): 25%
- Herbicidal action in [%] 28 DAT against Alopecurus myosuroides (Alopecurus myosuroides; 45 g of a.i./ha): 20%
- Herbicidal action in [%] 14 DAT against Alopecurus myosuroides (Alopecurus myosuroides; 45 g of a.i./ha, second 14 DAT block): 35%
- Herbicidal action in [%] 28 DAT against Lamium purpureum L. (Lamium purpureum): 80%
- Herbicidal action in [%] 28 DAT against Lolium rigidum (Lolium rigidum [6]; 15 g of a.i./ha): 0%
- Herbicidal action in [%] 28 DAT against Lolium rigidum (Lolium rigidum [6]; 45 g of a.i./ha): 20%
- Herbicidal action in [%] 28 DAT against Viola tricolor (Viola tricolor [7]): 80%
- Herbicidal action in [%] 14 DAT against Phalaris minor (Phalaris minor [8]; 15 g of a.i./ha): 15%
- Herbicidal action in [%] 28 DAT against Phalaris minor (Phalaris minor [8]; 15 g of a.i./ha): 0%
- Herbicidal action in [%] 14 DAT against Phalaris minor (Phalaris minor [8]; 45 g of a.i./ha): 20%
- Herbicidal action in [%] 28 DAT against Phalaris minor (Phalaris minor [8]; 45 g of a.i./ha): 10%
- Herbicidal action in [%] 14 DAT against Lolium rigidum (resistant biotype) ([9]; 15 g of a.i./ha): 10%
- Herbicidal action in [%] 28 DAT against Lolium rigidum (resistant biotype) ([9]; 15 g of a.i./ha): 0%
- Herbicidal action in [%] 14 DAT against Lolium rigidum (resistant biotype) ([9]; 45 g of a.i./ha): 25%
- Herbicidal action in [%] 28 DAT against Lolium rigidum (resistant biotype) ([9]; 45 g of a.i./ha): 20%
- Herbicidal action in [%] 14 DAT against Poa annua L. (Poa annua; 5 g of a.i./ha): 0%
- Herbicidal action in [%] 14 DAT against Poa annua L. (Poa annua; 15 g of a.i./ha): 0%
- Herbicidal action in [%] 28 DAT against Poa annua L. (Poa annua; 15 g of a.i./ha): 0%
- Herbicidal action in [%] 14 DAT against Poa annua L. (Poa annua; 45 g of a.i./ha): 10%
- Herbicidal action in [%] 28 DAT against Poa annua L. (Poa annua; 45 g of a.i./ha): 20%
